Experimental data published in PMC6934184, “Selective DNA-PKcs inhibition extends the therapeutic index of localized radiotherapy and chemotherapy” (The Journal of Clinical Investigation, 2019).

Target: T1, FLT3 (Homo sapiens, UniProt P36888)
T1 construct: purchased Thermo Fisher Scientific (Life Technologies) SelectScreen
Assay: SelectScreen Z'LYTE
Assay type: biochemical
In short: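 Percent values come from Thermo SelectScreen profiling of NU5455, combining activity and binding assays. CSF1R was run in Z'LYTE format at Km app ATP, and CAMK1 in Adapta format with ATP listed at 10.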

T1 sequence (P36888 27-993): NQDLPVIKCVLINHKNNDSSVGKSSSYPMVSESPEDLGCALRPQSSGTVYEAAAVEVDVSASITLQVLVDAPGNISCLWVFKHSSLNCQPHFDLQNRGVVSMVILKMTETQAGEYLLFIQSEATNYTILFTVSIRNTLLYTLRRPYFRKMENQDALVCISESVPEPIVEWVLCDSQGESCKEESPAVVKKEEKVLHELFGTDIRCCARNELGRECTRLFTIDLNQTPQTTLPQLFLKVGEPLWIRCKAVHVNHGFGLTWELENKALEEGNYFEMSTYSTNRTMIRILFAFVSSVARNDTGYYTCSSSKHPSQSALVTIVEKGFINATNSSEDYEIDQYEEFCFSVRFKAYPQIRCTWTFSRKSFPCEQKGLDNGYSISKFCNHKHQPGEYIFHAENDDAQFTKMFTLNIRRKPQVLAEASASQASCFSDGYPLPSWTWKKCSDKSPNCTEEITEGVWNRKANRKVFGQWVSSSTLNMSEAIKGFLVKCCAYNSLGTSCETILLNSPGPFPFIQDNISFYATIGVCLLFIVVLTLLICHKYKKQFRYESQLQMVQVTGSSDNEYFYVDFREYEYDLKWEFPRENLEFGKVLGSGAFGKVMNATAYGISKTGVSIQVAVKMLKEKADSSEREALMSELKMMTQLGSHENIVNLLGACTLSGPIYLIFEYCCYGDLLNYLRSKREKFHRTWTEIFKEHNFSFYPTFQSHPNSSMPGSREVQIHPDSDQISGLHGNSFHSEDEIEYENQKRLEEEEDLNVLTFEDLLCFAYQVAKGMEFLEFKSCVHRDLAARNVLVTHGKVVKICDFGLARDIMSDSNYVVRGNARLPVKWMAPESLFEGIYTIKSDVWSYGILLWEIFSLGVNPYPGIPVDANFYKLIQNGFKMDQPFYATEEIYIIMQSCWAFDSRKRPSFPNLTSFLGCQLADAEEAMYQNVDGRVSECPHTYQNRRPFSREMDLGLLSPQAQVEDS

CN(C(=O)CN1CCOCC1)c1ccc2sc3c(-c4cccc5c(=O)cc(N6CC7CCC(C6)O7)oc45)cccc3c2c1 [NU5455]
inhibition at 1 µM: 9.1%
